The values below come from PMC12389136, “Insights into the Structural Patterns in Human Glioblastoma Cell Line SF268 Activity and ADMET Prediction of Curcumin Derivatives” (Pharmaceutics, 2025).

Experiment [1] concerns Vero cells. The experiment is described as follows: Mammalian cytotoxicity, MTT assay in Vero cells. To be noted: Chlorocebus sabaeus, 48 h. It counts as cell-based. The procedure: Grade IV SF268 glioblastoma cells and Vero epithelial cells were obtained from ATCC and cultured in complete medium consisting of Roswell Park Memorial Institute medium (RPMI-1640) supplemented with 0.05% gentamicin (50 mg/mL) and 10% FBS (fetal bovine serum; Gibco, Invitrogen, Carlsbad, CA, USA). Cultures were maintained at 37 °C in a 5% CO2 atmosphere and split by trypsin treatment once per week to maintain confluence.
For the cytotoxicity assays, Vero cells were cultivated in 96-well plates at 37 °C under a 5% CO2 atmosphere using RPMI-1640 medium with 0.05% gentamicin (50 mg/mL) and 10% FBS (fetal bovine serum). Vero cells were allowed to adhere for 24 h before being incubated for 48 h with the samples. During the treatment, dimethyl sulfoxide (DMSO) was used as a negative control, curcumin (1) was used as a control, and samples were assayed at four different concentrations. After incubation, MTT (3-(4,5-di-methyl-thiazol-2-yl)-2,5-diphenyl-tetrazolium bromide) was added to each well, and the absorbance at 570 nm was determined 4 h later using a color plate reader. Cytotoxicity was evaluated colorimetrically by calculating the ability of the remaining living Vero cells to reduce the pale yellow MTT to the black–purple formazan product, as previously described. All bioassays were performed in duplicate, and the inhibitory concentration (IC50) values were determined using the Data Analysis complement Wizard of Excel 2000 (Microsoft, Seattle, WA, USA).
(Formazan colour is commonly taken as a measure of viable cells.)

The test system of experiment [2] is SF268 cell microtubules. Briefly: Immunofluorescence staining of microtubules in SF268 cells. It counts as cell-based, Human. To be noted: SF268, 10 µg/mL, 24 h / 12 h, versus DMSO control.
Procedure: SF268 cells were seeded onto 96-well plates and allowed to adhere overnight in complete growth medium (RPMI-1640).
After treatment, the cells were rinsed two times with PBS, fixed in 4% paraformaldehyde (15 min), and permeabilized with 0.5% Triton X-100 (Sigma Aldrich, St. Louis, MO, USA) (5 min). Nonspecific binding was blocked with 5% bovine serum albumin (BSA) in phosphate-buffered saline (PBS) for 1 h. […] Nuclei were counterstained with Hoechst 33342 (15 min), washed 2 times with PBS, and left in PBS at 4 °C in the dark.
Fluorescence images were acquired with an Olympus IX70 microscope (Olympus, Tokyo, Japan) using a 60× objective with identical exposure settings for all conditions. Microtubule density and organization were acquired and analyzed using β-tubulin signals in HCImage Hamamatsu (version 4.8) and ImageJ (version 1.54).
SF268 cells were exposed to media containing either DMSO as a control or curcumin derivatives at 10 μg/mL for 24 h, after which the microtubules were visualized with an α tubulin antibody (yellow), and the cell nuclei were stained with Hoechst (blue).
The cells were then stained with a β-tubulin antibody (yellow) and Hoechst dye (blue) to visualize the nucleus.
For experiment [3], the system named is SF268 glioblastoma cells. Briefly: MTT cytotoxicity in the glioblastoma cell line SF268 (single-concentration screening and IC50). It counts as cell-based, Human. Here is the method:
Cultures were maintained at 37 °C in a 5% CO2 atmosphere and split by trypsin treatment once per week to maintain confluence.
RPMI without cells was used as a color control, and doxorubicin was used as an inhibition control. After treatment, MTT was added to each well, and the absorbance at 570 nm was determined 4 h later using a color plate reader. All bioassays were performed in duplicate, and the IC50 values were determined by the Data Analysis complement Wizard of Excel 2000 (Microsoft, Seattle, WA, USA).

Experiment [4] relates to mitochondrial membrane potential of SF268 cancer cells. Briefly: Mitochondrial membrane potential measurement with DiOC6. It counts as cell-based, Human. To be noted: 10 µg/mL, 6 h, versus DMSO control. The procedure:
Changes in membrane potential were measured by staining cultured cells with the mitochondrial selective dye 3,3′-dihexyloxacarbocyanine (DiOC6) at 10 nM (Thermo Fisher, Waltham, MA, USA). The samples were incubated at 10 μg/mL for 6 h at 37 °C and then stained for 20 min with DiOC6 in the dark. Following incubation, the cells were washed, and the green fluorescence intensity of the DiOC6-stained cells was analyzed with a fluorometer immediately after staining. Incubation for 1 h with the mitochondrial membrane disruptor CCCP, carbonyl cyanide m-chlorophenylhydrazone (50 μM final concentration), was used as a positive control.
Changes in the mitochondrial membrane potential, a common hallmark of programmed cell death, were analyzed in samples with promising activities toward CNS cell line growth. We examined the effects of these compounds on the mitochondrial membrane potential using the dye DiOC6, a fluorophore that accumulates rapidly and selectively inside mitochondria depending on the membrane potential.
Figure 6 Changes in mitochondrial membrane potential caused by the compounds. Fluorometry was used to measure the mitochondrial effects of compounds that inhibited cell growth in culture. A membrane disruptor (CCCP) was added as a positive control, and untreated cultures (DMSO) were used as a negative control. […]

Experiment [5] concerns ROS production in SF268 cells. Briefly: Intracellular reactive oxygen species production (DCFDA). To be noted: derivatives 10 µg/mL for 3 h, H2O2 100 µM positive control. It counts as cell-based, Human. The procedure: Intracellular ROS formation was measured by fluorometry with the reactive dye chloromethyl dichlorodihydrofluorescein diacetate (DCFDA; Molecular Probes). […] Cultures were incubated with curcumin derivatives at 10 μg/mL for 3 h, after which the ROS-specific fluorescent dye DCFDA solution was added to the cells. After 30 min, fluorescence was measured at a wavelength of 485 nm (excitation)/535 nm (emission) using a microplate reader (Molecular Devices, San Jose, CA, USA).
Intracellular ROS production was tested following the treatment of SF268 cells with the curcumin derivatives at 10 μg/mL by fluorometry after staining with DCFDA.
Figure 7 Effects of curcumin derivatives on ROS generation. Cells were treated with curcumin derivatives at 10 μg/mL for 3 h. ROS production was determined using the DCFH-DA assay.

The term IC50 denotes the concentration at which inhibition is half-maximal. A lower IC50 goes with greater potency in that assay. For `C=CCOC(=O)CCC(=O)Oc1ccc(/C=C/C(=O)/C=C(O)/C=C/c2ccc(O)c(OC)c2)cc1OC` [Compound 11, Allyl (4-(1E,3Z,6E)-3-hydroxy-7-(4-hydroxy-3-methoxyphenyl)-5-oxohepta-1,3,6-trien-1-yl)-2-methoxyphenyl) succinate], the IC50 in experiment [1] is 11.9 µg/mL; in experiment [3] (Homo sapiens, SF-268, SF268, 48 h, MTT), 0.59 µg/mL. The “microtubule density and organization” value in experiment [2] was “significant reduction in microtubule density”. For the same molecule, in experiment [3] (Homo sapiens, SF-268, 48 h, SF268, single concentration 10 µg/mL, 48 h, MTT, percentage of relative growth, read-out: Growth Screening (%RG)), the activity at 10 µg/mL was ≤ 40%. Also, the “Selectivity Index (SI)” value in experiment [3] (Vero versus SF268) stood at 20.17. Also, the “mitochondrial membrane potential (DiOC6 fluorescence intensity)” value in experiment [4] was “lowest fluorescence intensity”.
`O=C1O[C@H]([C@@H](O)CO)C(O)=C1O` [ascorbic acid]: the ROS production result in experiment [5] is reported as “expected decrease”.
With `OO` [Compound H2O2, Hydrogen peroxide], the ROS production entry in experiment [5] is listed as “distinct ROS production”.
